Assay results reported in paper PMC10303271, “Synthesis and Receptor Binding Studies of α5 GABAAR Selective Novel Imidazodiazepines Targeted for Psychiatric and Cognitive Disorders” (Molecules, 2023).
Like-named read-outs stand apart in the source and are kept apart here.

Experiments:
M1 = target: T1, M1 (Homo sapiens, UniProt P11229); assay: PDSP primary binding M1; conditions: primary binding, 10,000 nM; last figure of the line = mean of the 4 before it; read-out: M1, PDSP raw data, mean
T1 construct: purchased NIMH Psychoactive Drug Screening Program (PDSP)
T1 sequence (P11229 1-460): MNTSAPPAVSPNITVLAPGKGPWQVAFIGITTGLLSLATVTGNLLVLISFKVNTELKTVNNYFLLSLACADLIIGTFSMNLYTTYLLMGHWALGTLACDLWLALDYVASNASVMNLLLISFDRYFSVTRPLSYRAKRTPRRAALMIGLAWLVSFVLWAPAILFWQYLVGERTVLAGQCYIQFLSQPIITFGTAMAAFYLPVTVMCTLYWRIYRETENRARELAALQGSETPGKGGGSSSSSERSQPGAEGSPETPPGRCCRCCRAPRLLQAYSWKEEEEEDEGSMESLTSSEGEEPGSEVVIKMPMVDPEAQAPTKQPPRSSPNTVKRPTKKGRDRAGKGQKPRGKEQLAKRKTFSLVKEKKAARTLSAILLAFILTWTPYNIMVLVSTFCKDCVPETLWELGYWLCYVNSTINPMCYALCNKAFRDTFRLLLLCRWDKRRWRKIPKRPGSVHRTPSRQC
Procedure: (§1) To determine if any off-target receptor-binding effects are present, all the novel ligands were sent to the National Institute of Mental Health (NIMH), Psychoactive Drug Screening Program (PDSP). The ligands were screened over a panel of 47 receptors, ion channels, and transporters to determine any other possible interactions with […]. The hERG-binding was also determined. […] No binding of the test compounds to calcium channels was observed. […] It is necessary to screen the compounds for hERG-binding during the early process of drug discovery. The unintentional binding of many drugs to hERG can cause blockade of hERG K+ channels in the heart, which can cause many side effects including cardiac arrhythmias and sudden death. […] All of the α5 imidazodiazepines were tested for hERG-binding.
(§2) The NIMH PDSP assay protocol book [https://kidbdev.med.unc.edu/databases/PDSP%20Protocols%20II%202013-03-28.pdf accessed on 23 April 2023]. describes the protocols for primary and secondary radio-ligand binding assays. These assays were carried out in a final volume of 125 µL per well in the appropriate binding buffer.
(§3) The binding of a ligand to a receptor, ion channel, or transporter was determined in the […] of 10 µM of the appropriate reference compound. […] Plates were incubated in the dark for 90 min at rt, and the reactions were stopped by vacuum filtration onto 0.3% polyethyleneimine (PEI) soaked 96-well filter mats using a 96-well Filtermateharvester. This was followed by three washes with cold PBS buffer. Radioactivity was then counted on a Microbeta counter. Nonlinear regression was used to analyze the data with N = 6 replicates.

M5 = target: T2, M5 (Homo sapiens, UniProt P08912); assay: PDSP primary binding M5; conditions: primary binding, 10,000 nM; last figure of the line = mean of the 4 before it; read-out: M5, PDSP raw data, mean
T2 construct: purchased NIMH Psychoactive Drug Screening Program (PDSP)
T2 sequence (P08912 1-532): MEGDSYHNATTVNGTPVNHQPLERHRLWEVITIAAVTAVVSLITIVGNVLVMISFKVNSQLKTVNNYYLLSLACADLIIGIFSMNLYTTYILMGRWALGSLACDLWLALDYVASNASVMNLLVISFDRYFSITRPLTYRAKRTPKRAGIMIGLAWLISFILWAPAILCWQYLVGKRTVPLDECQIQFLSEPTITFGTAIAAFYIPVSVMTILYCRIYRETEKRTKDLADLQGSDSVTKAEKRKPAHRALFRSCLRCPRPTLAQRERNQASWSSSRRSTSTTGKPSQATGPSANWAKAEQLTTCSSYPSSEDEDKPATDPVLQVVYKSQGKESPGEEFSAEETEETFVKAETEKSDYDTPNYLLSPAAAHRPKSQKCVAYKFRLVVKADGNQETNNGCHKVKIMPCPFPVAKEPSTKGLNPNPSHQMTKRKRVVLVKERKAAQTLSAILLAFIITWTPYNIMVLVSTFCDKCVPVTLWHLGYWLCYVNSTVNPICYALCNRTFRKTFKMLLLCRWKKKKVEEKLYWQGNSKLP
Procedure: as §1, §2, §3

NMDA = assay: PDSP primary binding NMDA; conditions: primary binding, 10,000 nM; last figure of the line = mean of the 4 before it
Procedure: as §1, §2, §3

AMPA = assay: PDSP primary binding AMPA; conditions: primary binding, 10,000 nM; last figure of the line = mean of the 4 before it
Procedure: as §1, §2, §3

H2 = target: T3, H2 (Homo sapiens, UniProt P25021); assay: PDSP primary binding H2; conditions: primary binding, 10,000 nM; last figure of the line = mean of the 4 before it; read-out: H2, PDSP raw data, mean
T3 construct: purchased NIMH Psychoactive Drug Screening Program (PDSP)
Procedure: as §1, §2, §3

5-HT1D = target: T4, 5-HT1D (Homo sapiens, UniProt P28221); assay: PDSP primary binding 5-HT1D; conditions: 1.5 h; primary binding, 10,000 nM; last figure of the line = mean of the 4 before it; read-out: 5-HT1D, PDSP raw data, mean
T4 construct: purchased NIMH Psychoactive Drug Screening Program (PDSP)
Procedure: as §1, §2, §3

M3D = target: T5, M3D (Homo sapiens, UniProt P20309, A239G/Y149C); assay: PDSP primary binding M3D; conditions: primary binding, 10,000 nM; last figure of the line = mean of the 4 before it; read-out: M3D, PDSP raw data, mean
T5 construct: purchased NIMH Psychoactive Drug Screening Program (PDSP)
Procedure: as §1, §2, §3

A2A = target: T6, A2A (Homo sapiens, UniProt P29274); assay: PDSP primary binding A2A; conditions: primary binding, 10,000 nM; last figure of the line = mean of the 4 before it
T6 construct: purchased NIMH Psychoactive Drug Screening Program (PDSP)
Procedure: as §1, §2, §3

DOR = target: T7, DOR (Homo sapiens, UniProt P41143); assay: PDSP radioligand binding at DOR
T7 construct: purchased NIMH Psychoactive Drug Screening Program (PDSP)
Description: Opioid receptors are a family of inhibitory G-coupled protein receptors where opioids act as the ligand. The kappa opioid receptors (KOR), µ and δ opioid receptors (MOR and DOR), and nociception opioid receptor (NOP) fall under the family of opioids receptors. It has been reported that oxadiazole imidazodiazepines can mediate analgesic and anti-inflammatory properties mediated also by the κ opioid receptor (KOR). The binding at KOR is usually silent. The affinities of the test compounds for KOR, DOR, and MOR were determined using radioligand binding assays at a screening concentration of 10,000 nM in collaboration with the National Institute of Mental Health’s Psychoactive Drug Screening Program (PDSP), as mentioned before. Concentration-dependent experiments were conducted to determine Ki values for the compounds that exceeded more than 50% radioligand displacement in primary binding assays.
as §2, §3

[1] = at 10,000 nM, N = 5, [3H]-DADLE 2.69 nM, read-out: Primary Binding %DOR
[2] = primary binding, 10,000 nM, last figure of the line = mean of the 4 before it, read-out: DOR, PDSP raw data, mean

T4 sequence (P28221 whole entry): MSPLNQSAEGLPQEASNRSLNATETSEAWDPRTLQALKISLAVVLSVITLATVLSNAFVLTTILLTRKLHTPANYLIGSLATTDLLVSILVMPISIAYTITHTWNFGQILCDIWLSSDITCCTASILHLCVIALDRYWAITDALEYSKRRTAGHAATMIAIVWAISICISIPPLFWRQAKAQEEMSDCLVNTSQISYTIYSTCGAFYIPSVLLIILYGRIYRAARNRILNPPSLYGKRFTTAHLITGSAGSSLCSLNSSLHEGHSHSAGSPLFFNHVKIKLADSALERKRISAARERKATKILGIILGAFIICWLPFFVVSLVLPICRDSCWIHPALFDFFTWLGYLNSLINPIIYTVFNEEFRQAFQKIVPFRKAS
T5 sequence (P20309 whole entry Y149C/A239G): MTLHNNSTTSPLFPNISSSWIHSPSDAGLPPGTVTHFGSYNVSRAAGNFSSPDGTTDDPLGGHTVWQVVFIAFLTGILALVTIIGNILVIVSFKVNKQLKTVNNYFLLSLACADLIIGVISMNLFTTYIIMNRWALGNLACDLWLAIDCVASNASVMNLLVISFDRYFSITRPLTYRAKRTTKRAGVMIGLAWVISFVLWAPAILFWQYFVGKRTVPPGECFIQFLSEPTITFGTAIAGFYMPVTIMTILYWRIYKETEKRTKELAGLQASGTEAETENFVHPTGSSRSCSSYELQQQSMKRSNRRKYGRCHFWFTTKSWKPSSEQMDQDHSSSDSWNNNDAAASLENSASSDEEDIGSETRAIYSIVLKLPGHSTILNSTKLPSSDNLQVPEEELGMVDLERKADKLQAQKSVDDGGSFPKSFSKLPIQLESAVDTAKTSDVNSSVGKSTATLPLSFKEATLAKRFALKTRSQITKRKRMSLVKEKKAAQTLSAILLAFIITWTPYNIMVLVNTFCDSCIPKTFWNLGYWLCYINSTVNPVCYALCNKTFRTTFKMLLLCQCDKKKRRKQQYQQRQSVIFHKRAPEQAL
T3 sequence (P25021 whole entry): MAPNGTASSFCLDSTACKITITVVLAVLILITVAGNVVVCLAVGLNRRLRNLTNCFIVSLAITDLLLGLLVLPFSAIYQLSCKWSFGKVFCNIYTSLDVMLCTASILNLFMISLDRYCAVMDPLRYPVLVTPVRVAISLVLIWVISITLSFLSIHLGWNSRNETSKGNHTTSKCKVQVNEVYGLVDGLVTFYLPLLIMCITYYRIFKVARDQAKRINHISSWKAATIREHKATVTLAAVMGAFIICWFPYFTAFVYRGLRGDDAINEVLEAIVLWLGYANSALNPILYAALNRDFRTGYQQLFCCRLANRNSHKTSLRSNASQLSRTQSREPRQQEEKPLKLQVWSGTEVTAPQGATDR
T6 sequence (P29274 whole entry): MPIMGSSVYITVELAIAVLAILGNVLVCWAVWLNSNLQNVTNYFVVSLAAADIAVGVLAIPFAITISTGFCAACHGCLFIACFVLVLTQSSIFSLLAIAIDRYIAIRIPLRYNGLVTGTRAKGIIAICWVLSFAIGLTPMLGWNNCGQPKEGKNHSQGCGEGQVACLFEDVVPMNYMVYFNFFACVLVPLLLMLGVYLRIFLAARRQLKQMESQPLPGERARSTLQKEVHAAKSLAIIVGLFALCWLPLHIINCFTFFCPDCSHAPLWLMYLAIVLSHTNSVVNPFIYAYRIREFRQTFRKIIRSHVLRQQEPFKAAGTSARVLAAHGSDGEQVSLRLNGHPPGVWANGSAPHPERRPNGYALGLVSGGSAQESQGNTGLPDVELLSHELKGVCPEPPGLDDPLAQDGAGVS
T7 sequence (P41143 whole entry): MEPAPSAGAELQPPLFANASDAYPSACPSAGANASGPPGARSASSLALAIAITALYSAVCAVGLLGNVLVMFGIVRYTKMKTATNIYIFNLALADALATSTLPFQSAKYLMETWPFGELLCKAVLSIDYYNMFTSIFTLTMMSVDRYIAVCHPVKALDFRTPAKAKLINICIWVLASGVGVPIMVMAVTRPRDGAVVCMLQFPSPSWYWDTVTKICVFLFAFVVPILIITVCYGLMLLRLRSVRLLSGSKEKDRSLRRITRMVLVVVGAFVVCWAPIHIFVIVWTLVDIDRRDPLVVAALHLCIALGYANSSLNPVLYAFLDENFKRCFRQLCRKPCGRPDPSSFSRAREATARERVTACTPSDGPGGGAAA

Compound	inhibition at 10 µM (M1) [%]	inhibition at 10 µM (M5) [%]	NMDA, PDSP raw data, mean (NMDA) [%]	AMPA, PDSP raw data, mean (AMPA) [%]	inhibition at 10 µM (H2) [%]	inhibition at 10 µM (5-HT1D) [%]	inhibition at 10 µM (M3D) [%]	A2A, PDSP raw data, mean (A2A) [%]	inhibition at 10 µM (DOR; [1]) [%]	inhibition at 10 µM (DOR; [2]) [%]
CCc1noc(-c2ncn3c2[C@@H](C)N=C(c2ccccc2F)c2cc(-c4ccccc4)ccc2-3)n1 [Compound 35, (R)-3-Ethyl-5-(6-(2′-fluorophenyl)-4-methyl-8-phenyl-4H-benzo[f]imidazo[1,5-a][1,4]diazepin-3-yl)-1,2,4-oxadiazole]	-1.63	-7.39	37.76	-5.68	-10.1	6.66	4.49	19.84	52.7 ± 4.38	52.7
C#Cc1ccc2c(c1)C(c1ccccc1F)=N[C@H](C)c1c(C(=S)N(C)C)ncn1-2 [Compound 33, (R)-8-Ethynyl-6-(2′-fluorophenyl)-N,N,4-trimethyl-4H-benzo[f]imidazo[1,5-a][1,4]diazepine-3-carbothioamide]	-1.6	-0.76	43.17	7.77	-1.42	-3.41	4.84	11.57	13.2 ± 7.83	43
C[C@H]1N=C(c2ccccc2F)c2cc(Cl)ccc2-n2cnc(-c3nc(C4CC4)no3)c21 [Compound 38, (R)-5-(8-Chloro-6-(2′-fluorophenyl)-4-methyl-4H-benzo[f]imidazo[1,5-a][1,4]diazepin-3-yl)-3-cyclopropyl-1,2,4-oxadiazole]	-0.23	-5.18	65.22	21.42	6.81	7.31	6.92	19.95	42.8 ± 8.94	42.7
C#Cc1ccc2c(c1)C(c1ccccc1Cl)=N[C@H](C)c1c(C(=O)NC)ncn1-2 [Compound 21, (R)-6-(2′-Chlorophenyl)-8-ethynyl-N,4-dimethyl-4H-benzo[f]imidazo[1,5-a][1,4]diazepine-3-carboxamide]	-8.29	-8.03	77.15	-31.95	-2.07	-9.02	0.48	-13.5	28.3 ± 4.67	28.3
C#Cc1ccc2c(c1)C(c1ccccc1Cl)=N[C@H](C)c1c(C(=O)N(C)CC)ncn1-2 [Compound 29]	4.95	-17.5	98.03	-3.32	-0.28	-13.1	6.78	-10.24	39.5 ± 3.21	39.5
CCc1noc(-c2ncn3c2[C@@H](C)N=C(c2ccccc2F)c2cc(Cl)ccc2-3)n1 [Compound 36, (R)-5-(8-Chloro-6-(2′-fluorophenyl)-4-methyl-4H-benzo[f]imidazo[1,5-a][1,4]diazepin-3-yl)-3-ethyl-1,2,4-oxadiazole]	-0.27	-10.7	55.6	-24.14	5.61	-1.16	-2.01	1.43	40.7 ± 10.2	40.7
